Results taken from the supplement of paper PMC10307832.

Assays:
Assay in all cases: relative viability (nuclei count vs DMSO), 5 days (fraction); higher = more cells survive
NCI-H1793 = test system: NCI-H1793
In short: (§1)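 Relative viability is defined as nuclei in treated wells over nuclei in vehicle wells. Duplicate plates were run and medians reported. Lung cancer cell lines in 1536-well plates were dosed by pin tool one day after seeding, with one drug or with a fixed anchor-drug dose plus five library-drug doses (not always all listed) in √10 steps, and nuclei were counted after 5 days.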

NCI-H1944 = test system: NCI-H1944
In short: as §1

NCI-H2347 = test system: NCI-H2347
In short: as §1

NCI-H23 = test system: NCI-H23
In short: as §1

NCI-H460 = test system: NCI-H460
In short: as §1

NCI-H650 = test system: NCI-H650
In short: as §1

NCI-H727 = test system: NCI-H727
In short: as §1

NCI-H838 = test system: NCI-H838
In short: as §1

PC-14 = test system: PC-14
In short: as §1

PC-3 [JPC-3] = test system: PC-3 [JPC-3]
In short: as §1

SW 1573 = test system: SW 1573
In short: as §1

NC(=O)Nc1cc(-c2cccc(F)c2)sc1C(=O)N[C@H]1CCCNC1 [AZD7762] + Cc1nc(NC(=O)N2CCC[C@H]2C(N)=O)sc1-c1ccnc(C(C)(C)C(F)(F)F)c1 [Alpelisib] (partner 2 µM)
relative viability (NCI-H1793; first compound 0.1 µM): 0.627 | relative viability (NCI-H1793; first compound 0.3162 µM): 0.854 | relative viability (NCI-H1793; first compound 1 µM): 0.524 | relative viability (NCI-H1944; first compound 0.01 µM): 0.855 | relative viability (NCI-H1944; first compound 0.03162 µM): 1.03 | relative viability (NCI-H1944; first compound 0.1 µM): 1.01 | relative viability (NCI-H1944; first compound 0.3162 µM): 1.08 | relative viability (NCI-H1944; first compound 1 µM): 0.893 | relative viability (NCI-H2347; first compound 0.01 µM): 1.07 | relative viability (NCI-H2347; first compound 0.03162 µM): 0.993 | relative viability (NCI-H2347; first compound 0.1 µM): 1.11 | relative viability (NCI-H2347; first compound 0.3162 µM): 1.26 | relative viability (NCI-H2347; first compound 1 µM): 1.01 | relative viability (NCI-H23; first compound 0.01 µM): 0.859 | relative viability (NCI-H23; first compound 0.03162 µM): 0.721 | relative viability (NCI-H23; first compound 0.1 µM): 0.745 | relative viability (NCI-H23; first compound 0.3162 µM): 0.562 | relative viability (NCI-H23; first compound 1 µM): 0.418 | relative viability (NCI-H460; first compound 0.01 µM): 0.604 | relative viability (NCI-H460; first compound 0.03162 µM): 0.498 | relative viability (NCI-H460; first compound 0.1 µM): 0.54 | relative viability (NCI-H460; first compound 0.3162 µM): 0.293 | relative viability (NCI-H460; first compound 1 µM): 0.0196 | relative viability (NCI-H650; first compound 0.01 µM): 1.19 | relative viability (NCI-H650; first compound 0.03162 µM): 1.12 | relative viability (NCI-H650; first compound 0.1 µM): 1.19 | relative viability (NCI-H650; first compound 0.3162 µM): 1.27 | relative viability (NCI-H650; first compound 1 µM): 1.02 | relative viability (NCI-H727; first compound 0.01 µM): 0.583 | relative viability (NCI-H727; first compound 0.03162 µM): 0.561 | relative viability (NCI-H727; first compound 0.1 µM): 0.471 | relative viability (NCI-H727; first compound 0.3162 µM): 0.466 | relative viability (NCI-H727; first compound 1 µM): 0.218 | relative viability (NCI-H838; first compound 0.01 µM): 1 | relative viability (NCI-H838; first compound 0.03162 µM): 1.01 | relative viability (NCI-H838; first compound 0.1 µM): 0.871 | relative viability (NCI-H838; first compound 0.3162 µM): 0.959 | relative viability (NCI-H838; first compound 1 µM): 0.616 | relative viability (PC-14; first compound 0.01 µM): 0.894 | relative viability (PC-14; first compound 0.03162 µM): 0.953 | relative viability (PC-14; first compound 0.1 µM): 0.922 | relative viability (PC-14; first compound 0.3162 µM): 0.919 | relative viability (PC-14; first compound 1 µM): 0.392 | relative viability (PC-3 [JPC-3]; first compound 0.01 µM): 0.998 | relative viability (PC-3 [JPC-3]; first compound 0.03162 µM): 1.03 | relative viability (PC-3 [JPC-3]; first compound 0.1 µM): 1.05 | relative viability (PC-3 [JPC-3]; first compound 0.3162 µM): 1.1 | relative viability (PC-3 [JPC-3]; first compound 1 µM): 0.897 | relative viability (SW 1573; first compound 0.01 µM): 0.885 | relative viability (SW 1573; first compound 0.03162 µM): 0.807 | relative viability (SW 1573; first compound 0.1 µM): 0.926 | relative viability (SW 1573; first compound 0.3162 µM): 1.08 | relative viability (SW 1573; first compound 1 µM): 0.647
